{"source": "patent US8399416B2", "about": "“Method of using heparin binding motif for treating asthma” (National Tsing Hua University, priority 2008, dated 2013)", "key": {"ECP": {"molecular_target": "T1, ECP (Homo sapiens, UniProt P12724)", "T1 construct": "His6 (C); made in house; host or cells: E. coli BL21-CodonPlus (DE3)", "T1 sequence (P12724 28-160)": "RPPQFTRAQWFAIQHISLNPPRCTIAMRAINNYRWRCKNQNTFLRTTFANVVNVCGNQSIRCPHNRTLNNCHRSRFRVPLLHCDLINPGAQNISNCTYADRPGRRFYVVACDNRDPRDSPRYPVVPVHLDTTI", "assay": "FACE analysis of ECP binding to heparin oligosaccharides", "conditions": "AMAC-labeled oligosaccharide incubated with ECP, 1% agarose gel", "method": "FIG. 2. FACE analysis to evaluate binding of ECP to various sugar-containing substrates. A, AMAC-labeled LMWH was incubated with or without ECP in PBS for 10 min at 25° C., and the binding reaction products were separated on a 1% agarose gel. The numbers above the gel indicate the molar ratio of ECP to LMWH. B, Representative oligosaccharide binding pattern of ECP. AMAC-labeled heparin dp3 (10.8 nmol), dp5 (3.3 nmol), dp7 (1.4 nmol), dp9 (1.1 nmol), LMWH (0.03 nmol) and PI-88 (0.03 nmol) were incubated with or without 10-fold molar excess of ECP, and the binding reaction products separated on a 1% agarose gel. C, Representative oligosaccharide binding pattern of EDN. AMAC-labeled heparin dp3 (10.8 nmol), dp5 (3.3 nmol), dp7 (1.4 nmol), dp9 (1.1 nmol), LMWH (0.03 nmol) and PI-88 (0.03 nmol) were incubated with or without 10-fold molar excess of ECP, and the binding reaction products separated on a 1% agarose gel.\nThus, the minimal heparin length (or disaccharide unit) required to interact with ECP was investigated by FACE (Fluorescence-assisted carbohydrate electrophoresis).\nInitially, ECP was co-incubated with LMWH at various molar ratios, and the binding products were analyzed by gel electrophoresis. […]"}, "[1]": {"tested_on": "ECP binding to Beas-2B cells", "assay": "Competitive inhibition of MBP-ECP binding to Beas-2B cells (cell ELISA)", "type": "cell-based, human", "conditions": "Fifty micrograms per mililiter oligosaccharide; 5 μg/ml MBP-ECP; 4° C.", "method": "FIG. 3. Heparin oligosaccharides inhibit ECP binding to cells. […] The amount of MBP-ECP bound to cells without GAG treatment was set to 100%. C, control (cells were incubated with MBP.) The data shown are the means of triplicate experiments.\nFIG. 7. Synthetic peptides inhibit ECP binding to cells. […] The data shown are the means of triplicate experiments.\nBeas-2B, a human bronchial epithelial cell line, was cultured in RPMI 1640 medium (Sigma-Aldrich) supplemented with heat-inactivated 10% fetal bovine serum (Gibco/Invitrogen, Carlsbad, Calif.).\nThe ability of MBP-ECP to bind cells in the presence of serial dilutions of oligosaccharides or peptides was determined as described (Fan, T. C., et al. (2007) Traffic 8, 1778-1795). At the present invention, synthetic heparins (dp3-9) were tested for their ability to interfere with ECP binding to Beas-2B cells. Briefly, confluent monolayers of Beas-2B cells in 96-well plates were pretreated with various concentrations of oligosaccharides or peptides in serum-free RPMI 1640 medium at 4° C. for 30 min before incubation with 5 μg/ml MBP-ECP at 4° C. for 1 h. The cells were then washed with ice-cold PBS and fixed with 2% PFA at room temperature for 15 min prior to blocking with 2% BSA/PBS at room temperature for 90 min. The level of bound MBP-ECP was quantified by ELISA analysis. MBP-ECP was detected using mouse monoclonal anti-MBP and goat anti-mouse horseradish peroxidase (HRP)-conjugated secondary antibody, followed by the enhanced chemiluminescence detection system. The amount of MBP-ECP bound to cells without oligosaccharide or peptide treatment was set to 100%."}, "ECP wt": {"molecular_target": "T2, ECP wt (Homo sapiens, UniProt P12724)", "T2 construct": "His6 (C); made in house; host or cells: E. coli BL21-CodonPlus (DE3)", "T2 sequence (P12724 28-160)": "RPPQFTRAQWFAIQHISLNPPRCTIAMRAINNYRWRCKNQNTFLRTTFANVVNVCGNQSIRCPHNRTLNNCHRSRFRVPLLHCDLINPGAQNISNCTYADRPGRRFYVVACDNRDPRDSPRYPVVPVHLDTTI", "assay": "Intrinsic tryptophan fluorescence titration of ECP wt with heparin oligosaccharides", "type": "binding", "conditions": "PBS at 25° C., read-out: Kd, ECP wt", "method": "(§1) FIG. 5. ITFE profiles of ECP wt and mt1 with dp5. Tryptophan titration emission spectra of […] ECP wt or mt1 bound with dp5. The emission spectra at 340 nm were recorded. The resulting isotherms were fitted by nonlinear regression least-squares computer fit using the KaleidaGraph Synergy Software. ΔF, the relative fluorescence change, equals F0−Fobs, where F0 and Fobs represent the initial and observed fluorescence values, respectively.\n(§2) The binding affinities of wild-type and mutant ECP for heparin oligosaccharides were subsequently monitored by intrinsic tryptophan fluorescence titration (Lau, E. K., et al. (2004) The Journal of biological chemistry 279, 22294-22305).\n(§3) Binding of ECP to heparin was monitored by changes in intrinsic tryptophan fluorescence emission (IFTE). ECP (200 nM) in PBS at 25° C. was titrated with small aliquots of a high concentration of pentasaccharides with minimal dilution (<2%). Protein fluorescence measurements were recorded 2 min after each addition on a Hitachi 8000 spectrofluorimeter at emission wavelength of 340 nm using an excitation wavelength of 280 nm. ΔF, the relative fluorescence change, equals F0−Fobs, where F0 and Fobs represent the initial and observed fluorescence values, respectively. […]"}, "ECP mt1": {"molecular_target": "T3, ECP mt1 (Homo sapiens, UniProt P12724, K65A/R61A/R63A/W62A)", "T3 construct": "recombinant mature ECP was injected into the rat circulation; His6 (C); made in house; host or cells: E. coli BL21-CodonPlus(DE3)", "T3 sequence (P12724 28-160 R61A/W62A/R63A/K65A)": "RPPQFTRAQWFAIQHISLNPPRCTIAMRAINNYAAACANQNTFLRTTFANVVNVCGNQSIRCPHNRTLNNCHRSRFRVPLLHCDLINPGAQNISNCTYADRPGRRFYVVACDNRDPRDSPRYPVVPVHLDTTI", "assay": "Intrinsic tryptophan fluorescence titration of ECP mt1 with heparin oligosaccharides", "type": "binding", "conditions": "PBS at 25° C., read-out: Kd, ECP mt1", "method": "as §1\nAmino acid residues R34, W35, R36, and K38 of ECP were simultaneously substituted to alanine using QuickChange site-directed mutagenesis (Stratagene, La Jolla, Calif.) and the resultant mutant was named ECP mt1. […]\nas §2\nas §3, with “ECP (200 nM) in PBS at 25° C. was titrated with small aliquots of a high concentration of pentasaccharides with minimal dilution (<2%).” left out"}, "C1 peptide": {"molecular_target": "C1 peptide (Homo sapiens, UniProt P12724)", "assay": "Tryptophan fluorescence titration of C1 peptide with heparin oligosaccharides", "type": "binding", "conditions": "1 μM peptide; tryptophan fluorescence at 340 nm; read-out: Kd, C1 peptide", "method": "FIG. 10. Titration profiles of synthetic peptides by synthetic heparin oligosaccharides. Titrations were carried out on 1 μM peptides in the presence of heparin oligosaccharides. The Kd of each peptide-oligosaccharide interaction was determined by measuring the fluorescence change of intrinsic tryptophan at 340 nm. Data were fitted to a single-binding-site curve using nonlinear least-squares analysis.\nas §3"}, "Beas-2B cells": {"tested_on": "Beas-2B cells", "conditions": "biotinylated peptides, 1 h at 4° C.", "method": "FIG. 7. Synthetic peptides inhibit ECP binding to cells. A, Beas-2B cells were preincubated with peptides in RPMI 1640 medium for 30 min at 4° C. before incubation with MBP-ECP for an additional 1 h. After treatment, the cells were washed with PBS and fixed with PFA. The level of bound MBP-ECP was assessed by ELISA. The amount of MBP-ECP bound to cells without peptide treatment was set to 100%. The data shown are the means of triplicate experiments. B, Beas2-B cells were incubated with biotinylated peptides for 1 h at 4° C. The amount of peptides bound to cells was assessed as for FIG. 3.\nTo investigate whether the RWRCK (SEQ ID NO: 8) motif is directly responsible for heparin binding, cell ELISA was conducted using a synthetic peptide, C1 (SEQ ID NO: 3), along with a positive control peptide derived from HIV-TAT, TAT (SEQ ID NO: 6) (Vives, E., et al. (1997) The Journal of biological chemistry 272, 16010-16017; Ziegler, A. and Seelig, J. (2004) Biophysical journal 86, 254-263). […] Therefore, synthetic peptides with heparin binding activity may compete with ECP for cellular binding. Furthermore, the cell surface binding ability of peptides was tested using cell ELISA assay."}, "[2]": {"conditions": "AMAC-labeled LMWH, increasing peptide concentrations, room temperature 15 min", "method": "FIG. 9. FACE analysis of synthetic peptides. AMAC-labeled LMWH were incubated without or with increasing concentrations of C1, TAT, D1 and R1 peptides at room temperature for 15 min. Samples were loaded and separated by agarose gel electrophoresis as described for FIG. 2.\nSynthetic heparin oligosaccharide (FIG. 1) (Lee, C. J., et al. (2004) J Am Chem Soc 126, 476-477), low molecular weight heparin (LMWH) and PI-88 (kindly provided by Progen Inc., Australia) were labeled with 2-aminoacridone (AMAC) as described (Calabro, A., et al. (2000) Glycobiology 10, 273-281). AMAC-oligosaccharide and proteins were incubated at room temperature for 15 min, loaded onto 1% gels and electrophoresed as described (Holmes, O., et al. (2007) J Mol Biol 367, 395-408).\nIn addition, because EDN contains a conventional heparin binding sequence, the corresponding peptide, D1 (SEQ ID NO: 4), was also synthesized and tested."}, "[3]": {"conditions": "PBS buffer at 25° C.; HMWH 10-20 μM", "method": "FIG. 11. Isothermal titration calorimetry of heparin-peptide interaction. The top panels show the differential power time course. Raw data for sequential 6-μl injections of each synthetic peptide in PBS buffer at 25° C. TAT (positive control), B, R1 (negative control), C, C1, and D, D1 into the sample cell containing 1.4 ml HMWH solution (10-20 μM). The total heat released in each injection is proportional to the area under the corresponding peak. […] The solid line represents a non-linear least squares of the reaction heat for the injection."}, "[4]": {"tested_on": "Beas-2B cell surface heparan sulfate", "conditions": "4° C. for 30 min", "quoted_text": "Human Beas-2B cells were incubated with synthetic peptide (A, TAT; B, D1) at 4° C. for 30 min and then washed, fixed and analyzed. Synthetic peptide was identified with mouse anti-biotin monoclonal antibody and FITC-conjugated goat anti-mouse antibody. The distribution of synthetic peptide was examined by confocal microscopy.\nTo investigate whether the heparin binding QRRCK motif on EDN, corresponding to the “RWRCK” motif on ECP (SEQ ID NO: 8), was directly responsible for heparan sulfate binding on cell surface, Beas-2B cell-peptide binding was conducted using a synthetic peptide, D1 (SEQ ID NO: 4), and a positive control, TAT (SEQ ID NO: 6) purchased from Genemed Synthesis (South San Francisco, Calif.)."}, "Beas-2B cell line": {"tested_on": "Beas-2B cell line", "conditions": "data taken from reference (Fan et al. 2007), read-out: IC50 for cytotoxic ECP; cited from earlier work"}}, "data": [{"molecule": "CO[C@H]1O[C@H](COS(=O)(=O)O)[C@@H](O[C@@H]2O[C@@H](C(=O)O)[C@@H](O[C@H]3O[C@H](COS(=O)(=O)O)[C@@H](O[C@@H]4O[C@@H](C(=O)O)[C@@H](O[C@H]5O[C@H](COS(=O)(=O)O)[C@@H](O)[C@H](O)[C@H]5NS(=O)(=O)O)[C@H](O)[C@H]4OS(=O)(=O)O)[C@H](O)[C@H]3NS(=O)(=O)O)[C@H](O)[C@H]2OS(=O)(=O)O)[C@H](O)[C@H]1NS(=O)(=O)O", "note": "[dp5]", "values": [{"measurement": "binding to ECP (FACE)", "setting": "ECP", "value": "shortest heparin fragment that retained the ability to bind ECP"}, {"measurement": "inhibition of ECP binding to cells", "setting": "[1]", "value": 50, "unit": "%"}, {"measurement": "Kd", "setting": "ECP wt", "value": 140, "unit": "nM"}, {"measurement": "Kd", "setting": "ECP mt1", "value": 568, "unit": "nM"}, {"measurement": "Kd", "setting": "C1 peptide", "value": 275, "unit": "nM"}]}, {"molecule": "NYQRRCKNQNK-biotin [D1]", "values": [{"measurement": "cell surface binding ability of peptides", "setting": "Beas-2B cells", "value": "bound to the cell surface"}, {"measurement": "interaction with LMWH (FACE)", "setting": "[2]", "value": "bound heparin as tightly as C1"}, {"measurement": "heat release on binding to HMWH (ITC)", "setting": "[3]", "value": "exothermal reaction modes were clearly observed"}, {"measurement": "peptide binding to cell surface (confocal microscopy)", "setting": "[4]", "value": "bound to Beas-2B cell surface heparan sulfate"}]}, {"molecule": "ECP wt: Recombinant human eosinophil cationic protein with C-terminal His6 tag, expressed in E. coli (protein, UniProt P12724 28-160, looked up, C-terminal His6 tag, Recombinant human eosinophil cationic protein with C-terminal His6 tag, expressed in E. coli) Eosinophil cationic protein: RPPQFTRAQWFAIQHISLNPPRCTIAMRAINNYRWRCKNQNTFLRTTFANVVNVCGNQSIRCPHNRTLNNCHRSRFRVPLLHCDLINPGAQNISNCTYADRPGRRFYVVACDNRDPRDSPRYPVVPVHLDTTI", "values": [{"measurement": "IC50", "setting": "Beas-2B cell line", "value": 16000, "unit": "nM"}]}]}
